Measurements: patent US20240217947A1, “Morpholinylquinazoline Compound, Pharmaceutical compositions thereof and Use Thereof” (SHANGHAI YINGLI PHARMACEUTICAL CO., LTD, priority 2022, published 2024)

Tests used:
Type in all cases: biochemical
PI3Kβ = PI3Kβ (Homo sapiens, UniProt P42338); test: PI3Kβ enzyme activity inhibition IC50 evaluation assay (ADP-Glo Kinase Assay); conditions: ATP 25 μM, PIP2 50 μg/mL, 1 hour room temperature, read-out: PI3K-β IC50
Experimental: (§1) Effec Example 1 IC50 evaluation assay for PI3Kα, PI3Kδ, PI3Kβ and PI3Kγ enzyme activity inhibition
(§2) The experiment was performed using the ADP-Glo Kinase Assay kit, following the instructions. The following buffer solutions were prepared: 50 mM HEPES, pH 7.5, 3 mM MgCl2, 1 mM EGTA, 100 mM NaCl, 0.03% CHAPS, 2 mM DTT. The test compound samples were dissolved in DMSO and added to the screening system at a certain starting concentration such as 10 μM, 3-fold dilution, while setting up both DMSO control and no kinase control. The optimal concentrations of PI3Kα, PI3Kδ, PI3Kβ and PI3Kγ enzymes, substrate (PIP2) and ATP were prepared in buffer. The enzyme reaction system included: buffer, ATP 25 μM, kinase substrate (PIP2, 50 μg/mL), kinases [PI3Kα (0.15 μg/mL), PI3Kδ (1.2 μg/mL), PI3Kβ (0.3 μg/mL) and PI3Kγ (2.5 μg/mL)], etc. The reaction system was reacted at room temperature for 1 hour. The reaction was terminated by adding a termination reagent (ADP-Glo reagent, 5 μL), and the ADP content in the system was detected using a detection reagent (Kinase Detection Reagent, 10 μL). Signal data were collected using the Envision instrument. Calculate the percentage of (%) inhibition according to the following formula: % inhibition=(DMSO control signal value−sample signal value)/(DMSO control signal value−no-kinase control signal value). The IC50 value was obtained by fitting the curve using the formula Y=Bottom+(Top-Bottom)/(1+(IC50/X)^HillSlope).

PI3Kγ = PI3Kγ (Homo sapiens, UniProt P48736); test: PI3Kγ enzyme activity inhibition IC50 evaluation assay (ADP-Glo Kinase Assay); conditions: ATP 25 μM, PIP2 50 μg/mL, 1 hour room temperature, read-out: PI3K-γ IC50
Experimental: as §1, §2

HDAC2 = HDAC2 (Homo sapiens, UniProt Q92769); test: HDAC2 enzyme activity inhibition IC50 evaluation experiment; conditions: HDAC2 4 nM, acetylated peptide 10 μM, trypsin, fluorescence
Experimental: (§3) Effect Example 2 HDAC1, HDAC2, HDAC3, HDAC6 enzyme activity inhibition IC50 evaluation experiment
(§4) Buffer solution (50 mM Tris 7.5, 0.01% Tween-20, 50 mM NaCl) was prepared according to the kit instructions, and the enzyme solution and substrate solution (acetylated peptide with the addition of trypsin) were prepared using the buffer solution. The test compound samples were dissolved with DMSO and added to the screening system at a certain starting concentration such as 10 μM, 3-fold dilution, while setting up a DMSO control and no-enzyme control. The enzyme reaction system includes: buffer, enzyme [final concentration: HDAC1=10 nM, HDAC2=4 nM, HDAC3=7 nM, HDAC6=5 nM], substrate (acetylated peptide) [final concentration: Peptide(HDAC1)=8 μM, Peptide(HDAC2)=10 μM, Peptide(HDAC3)=5 μM, Peptide(HDAC6)=11 μM], trypsin [final concentration: Trypsin(HDAC1,2,3)=0.05 μM, Trypsin(HDAC6)=0.1 μM], etc. The enzymes and compounds were reacted at room temperature for 15 min. After adding the substrate and Trypsin, centrifugation was performed for 1 min, and the fluorescence signal data (excitation wavelength 355 nM/emission wavelength 460 nm) was read continuously for 60 min using Envision, and the linear reaction segment was selected to obtain the slope and thus calculate the inhibition rate at that concentration. The IC50 value was obtained by fitting the curve using the formula Y=Bottom+(Top-Bottom)/(1+(IC50/X)^HillSlope).

HDAC1 = HDAC1 (Homo sapiens, UniProt Q13547); test: HDAC1 enzyme activity inhibition IC50 evaluation experiment; conditions: HDAC1 10 nM, acetylated peptide 8 μM, trypsin, fluorescence
Experimental: as §3, §4

HDAC3 = HDAC3 (Homo sapiens, UniProt O15379); test: HDAC3 enzyme activity inhibition IC50 evaluation experiment; conditions: HDAC3 7 nM, acetylated peptide 5 μM, trypsin, fluorescence
Experimental: as §3, §4

HDAC3, sequence (O15379 whole entry, species assumed): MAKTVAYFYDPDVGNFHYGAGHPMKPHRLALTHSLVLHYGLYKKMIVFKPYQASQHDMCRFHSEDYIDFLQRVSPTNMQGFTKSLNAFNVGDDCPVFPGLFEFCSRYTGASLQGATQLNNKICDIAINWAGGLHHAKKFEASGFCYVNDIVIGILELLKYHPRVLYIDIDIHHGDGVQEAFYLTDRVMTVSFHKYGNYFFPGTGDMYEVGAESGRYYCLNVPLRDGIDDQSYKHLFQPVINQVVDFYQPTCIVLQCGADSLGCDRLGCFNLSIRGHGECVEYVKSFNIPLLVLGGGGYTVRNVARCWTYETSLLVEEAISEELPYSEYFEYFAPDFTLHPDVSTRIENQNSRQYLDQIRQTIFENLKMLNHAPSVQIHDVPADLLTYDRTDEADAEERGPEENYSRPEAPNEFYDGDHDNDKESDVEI
HDAC3, sequence (Q9Y618 395-489 partner limits assumed, species assumed): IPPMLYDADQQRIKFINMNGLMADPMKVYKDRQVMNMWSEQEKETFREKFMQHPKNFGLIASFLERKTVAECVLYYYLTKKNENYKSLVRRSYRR
HDAC1, sequence (Q13547 whole entry, species assumed): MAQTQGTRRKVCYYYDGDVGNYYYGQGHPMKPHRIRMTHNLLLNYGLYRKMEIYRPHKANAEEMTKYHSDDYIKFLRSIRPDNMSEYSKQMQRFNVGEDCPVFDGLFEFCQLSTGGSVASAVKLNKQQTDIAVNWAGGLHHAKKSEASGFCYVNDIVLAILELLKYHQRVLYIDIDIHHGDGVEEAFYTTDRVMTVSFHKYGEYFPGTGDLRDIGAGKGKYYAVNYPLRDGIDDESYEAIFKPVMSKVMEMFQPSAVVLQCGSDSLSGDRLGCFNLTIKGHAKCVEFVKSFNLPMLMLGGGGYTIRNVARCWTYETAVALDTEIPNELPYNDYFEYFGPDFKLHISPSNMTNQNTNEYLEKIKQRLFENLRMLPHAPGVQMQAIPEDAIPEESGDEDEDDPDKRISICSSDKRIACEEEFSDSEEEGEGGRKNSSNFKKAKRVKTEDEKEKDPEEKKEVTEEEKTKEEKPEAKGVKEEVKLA
HDAC2, sequence (Q92769 whole entry, species assumed): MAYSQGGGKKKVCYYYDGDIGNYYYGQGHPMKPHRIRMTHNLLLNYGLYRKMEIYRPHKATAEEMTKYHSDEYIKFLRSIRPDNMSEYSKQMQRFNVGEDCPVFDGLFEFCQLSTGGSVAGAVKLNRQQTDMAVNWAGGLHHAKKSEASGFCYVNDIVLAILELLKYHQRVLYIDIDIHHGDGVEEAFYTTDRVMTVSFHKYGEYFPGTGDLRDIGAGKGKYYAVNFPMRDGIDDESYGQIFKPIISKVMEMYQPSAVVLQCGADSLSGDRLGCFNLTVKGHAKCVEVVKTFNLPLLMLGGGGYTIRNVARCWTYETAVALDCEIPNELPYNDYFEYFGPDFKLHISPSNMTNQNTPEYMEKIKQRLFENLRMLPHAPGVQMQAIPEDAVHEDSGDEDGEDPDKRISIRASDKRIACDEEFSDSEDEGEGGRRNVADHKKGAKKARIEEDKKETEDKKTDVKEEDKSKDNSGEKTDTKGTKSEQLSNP
PI3Kγ, sequence (P48736 whole entry, species assumed): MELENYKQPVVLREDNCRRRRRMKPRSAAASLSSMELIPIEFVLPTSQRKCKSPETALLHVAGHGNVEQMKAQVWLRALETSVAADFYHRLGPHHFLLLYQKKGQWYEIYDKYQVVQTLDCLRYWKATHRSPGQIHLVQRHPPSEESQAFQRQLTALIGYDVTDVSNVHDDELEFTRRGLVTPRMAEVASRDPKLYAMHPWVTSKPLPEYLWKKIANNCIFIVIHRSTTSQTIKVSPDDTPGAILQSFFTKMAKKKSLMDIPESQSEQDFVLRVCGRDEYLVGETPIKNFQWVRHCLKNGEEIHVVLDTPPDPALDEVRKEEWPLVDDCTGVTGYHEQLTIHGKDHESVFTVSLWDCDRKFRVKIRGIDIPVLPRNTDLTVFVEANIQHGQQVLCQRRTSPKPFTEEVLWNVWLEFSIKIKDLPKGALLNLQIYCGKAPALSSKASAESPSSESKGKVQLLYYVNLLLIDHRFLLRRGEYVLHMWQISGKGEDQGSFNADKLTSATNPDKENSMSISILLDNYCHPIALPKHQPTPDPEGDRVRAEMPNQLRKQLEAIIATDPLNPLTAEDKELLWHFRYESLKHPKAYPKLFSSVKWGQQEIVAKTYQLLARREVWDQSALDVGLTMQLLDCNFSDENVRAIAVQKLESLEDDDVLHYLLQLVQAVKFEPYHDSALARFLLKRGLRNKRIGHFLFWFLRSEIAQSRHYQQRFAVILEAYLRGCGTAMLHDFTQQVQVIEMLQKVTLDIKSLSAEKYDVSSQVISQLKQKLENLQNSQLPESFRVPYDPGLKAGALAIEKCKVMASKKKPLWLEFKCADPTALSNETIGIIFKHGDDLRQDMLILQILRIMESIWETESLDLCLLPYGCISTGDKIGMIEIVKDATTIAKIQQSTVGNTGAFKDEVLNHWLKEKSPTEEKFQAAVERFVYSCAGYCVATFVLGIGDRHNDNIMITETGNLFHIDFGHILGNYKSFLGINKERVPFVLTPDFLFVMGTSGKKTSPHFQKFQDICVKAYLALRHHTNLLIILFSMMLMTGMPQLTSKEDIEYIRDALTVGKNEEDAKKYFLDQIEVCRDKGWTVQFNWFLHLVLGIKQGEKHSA
PI3Kβ, sequence (P42338 whole entry, species assumed): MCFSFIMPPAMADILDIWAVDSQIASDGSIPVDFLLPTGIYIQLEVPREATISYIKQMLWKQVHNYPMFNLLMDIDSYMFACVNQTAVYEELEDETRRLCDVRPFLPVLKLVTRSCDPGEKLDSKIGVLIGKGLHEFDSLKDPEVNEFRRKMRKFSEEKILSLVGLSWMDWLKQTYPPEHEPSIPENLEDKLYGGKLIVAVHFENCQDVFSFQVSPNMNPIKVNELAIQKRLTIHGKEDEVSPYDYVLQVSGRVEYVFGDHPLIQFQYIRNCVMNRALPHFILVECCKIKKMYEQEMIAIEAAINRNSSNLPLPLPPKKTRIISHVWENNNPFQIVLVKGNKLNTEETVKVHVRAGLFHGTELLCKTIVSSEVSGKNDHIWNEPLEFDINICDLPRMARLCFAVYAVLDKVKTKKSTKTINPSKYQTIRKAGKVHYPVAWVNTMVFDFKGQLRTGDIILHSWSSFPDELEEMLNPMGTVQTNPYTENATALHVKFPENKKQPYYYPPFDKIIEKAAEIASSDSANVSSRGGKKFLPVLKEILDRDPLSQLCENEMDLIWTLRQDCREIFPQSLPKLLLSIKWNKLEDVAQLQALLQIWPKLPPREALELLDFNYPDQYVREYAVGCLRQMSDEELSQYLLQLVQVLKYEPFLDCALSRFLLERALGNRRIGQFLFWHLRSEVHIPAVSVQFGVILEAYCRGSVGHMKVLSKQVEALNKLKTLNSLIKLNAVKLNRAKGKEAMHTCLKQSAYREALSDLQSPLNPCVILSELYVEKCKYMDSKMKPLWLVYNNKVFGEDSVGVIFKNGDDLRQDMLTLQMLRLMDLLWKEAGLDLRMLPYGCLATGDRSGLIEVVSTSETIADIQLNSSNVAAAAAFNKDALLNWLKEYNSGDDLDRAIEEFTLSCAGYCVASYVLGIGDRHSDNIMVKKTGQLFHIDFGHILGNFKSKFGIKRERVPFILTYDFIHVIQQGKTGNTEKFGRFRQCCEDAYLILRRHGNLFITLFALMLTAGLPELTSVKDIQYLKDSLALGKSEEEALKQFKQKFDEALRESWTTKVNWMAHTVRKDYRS
PI3Kβ, sequence (P27986 whole entry partner, species assumed): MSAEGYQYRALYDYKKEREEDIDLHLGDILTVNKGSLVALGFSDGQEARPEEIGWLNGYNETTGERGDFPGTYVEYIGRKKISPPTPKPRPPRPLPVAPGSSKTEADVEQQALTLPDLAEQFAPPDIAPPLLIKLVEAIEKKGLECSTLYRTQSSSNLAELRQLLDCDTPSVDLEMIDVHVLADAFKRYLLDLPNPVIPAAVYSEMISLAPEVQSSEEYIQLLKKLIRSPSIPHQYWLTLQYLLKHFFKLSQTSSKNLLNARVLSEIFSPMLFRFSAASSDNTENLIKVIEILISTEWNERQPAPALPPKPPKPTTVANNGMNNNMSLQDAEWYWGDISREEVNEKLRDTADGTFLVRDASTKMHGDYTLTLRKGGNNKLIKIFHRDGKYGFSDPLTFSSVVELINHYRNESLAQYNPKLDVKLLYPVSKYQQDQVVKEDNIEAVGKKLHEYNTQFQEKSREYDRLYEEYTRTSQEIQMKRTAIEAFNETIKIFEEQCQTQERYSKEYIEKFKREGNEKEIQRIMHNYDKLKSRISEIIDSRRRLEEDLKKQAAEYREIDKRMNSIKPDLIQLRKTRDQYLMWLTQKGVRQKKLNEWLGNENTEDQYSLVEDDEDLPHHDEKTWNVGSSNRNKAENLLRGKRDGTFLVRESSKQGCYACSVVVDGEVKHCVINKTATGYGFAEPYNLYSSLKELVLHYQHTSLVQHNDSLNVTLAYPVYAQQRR

For `COc1ncc(-c2nc(N3CCOCC3)nc3c(CN4CCN(c5ncc(C(=O)NO)cn5)CC4)cc(F)cc23)cc1NS(C)(=O)=O` [Compound 7], the IC50 (PI3Kβ) was 100 to 1000 nM, the IC50 (PI3Kγ) was 1 to 10 µM and the IC50 (HDAC2) was 10 to 100 nM. The IC50 (HDAC1) was 10 to 100 nM and the IC50 (HDAC3) was 10 to 100 nM.
`COc1ncc(-c2nc(N3CCOCC3)nc3c(OCCCCCCC(=O)NO)cc(F)cc23)cc1NS(C)(=O)=O` [Compound 9] was tested, and the IC50 (HDAC2) was no more than 10 nM, the IC50 (HDAC1) was no more than 10 nM and the IC50 (HDAC3) was 10 to 100 nM.
With `COc1ncc(-c2nc(N3CCOCC3)nc3c(OC4CCN(c5ncc(C(=O)NO)cc5F)CC4)cc(F)cc23)cc1NS(C)(=O)=O` [Compound 30] the IC50 (PI3Kβ) was 1000 to 10000 nM, the IC50 (PI3Kγ) was 1 to 10 µM and the IC50 (HDAC2) was 100 to 1000 nM. For the same molecule, the IC50 (HDAC1) was 100 to 1000 nM and the IC50 (HDAC3) was 100 to 1000 nM.
With `COc1ncc(-c2nc(N3CCOCC3)nc3c(OC4CCN(c5ncc(C(=O)NO)cn5)CC4)cc(F)cc23)cc1NS(C)(=O)=O` [Compound 39] the IC50 (HDAC2) was 10 to 100 nM, the IC50 (HDAC1) was no more than 10 nM and the IC50 (HDAC3) was 10 to 100 nM.
`COc1ncc(-c2nc(N3CCOCC3)nc3c(OC4CCN(c5ccc(C(=O)NO)cn5)CC4)cc(F)cc23)cc1NS(C)(=O)=O` [Compound 40] was tested, and the IC50 (HDAC2) was 100 to 1000 nM, the IC50 (HDAC1) was 10 to 100 nM and the IC50 (HDAC3) was 100 to 1000 nM.
